Assay results: patent publication US20180236109A1, “Pain Tracking by PET-imaging (Pain-TraP)” (Universitat zu Koln, priority 2015, published 2018)

Tests used:
[1] = biological target: T1, PSMA (Mus musculus, UniProt O35409); test: micro-PET tracer uptake in Complete-Freund's-Adjuvant (CFA) model of inflammatory pain; format: in vivo, mice
T1 construct: from tissue; host or cells: C57BL/6 mouse, in vivo (hindpaw, thigh/sciatic nerve lesion site, sciatic nerve plexus)
Procedure: (§1) Experiments were performed in male 6- to 12-week-old C57BL/6 mice. Animals were housed on a 12/12 light/dark cycle with access to food and water ad libitum. All experiments adhered to the guidelines of the International Association for the Study of Pain and to the ARRIVE guidelines, and were approved by our local Ethics Committee for Animal Research.
The mechanical sensitivity of the plantar side of a hindpaw was assessed with an automated testing device (dynamic plantar aesthesiometer; Ugo Basile). This device pushes a thin probe (0.5 mm diameter) with increasing force through a wire-grated floor against the plantar surface of the paw from beneath, and it automatically stops and records the latency time after which the animal withdraws the paw. The force increased from 0 to 5 g within 10 s (0.5 g/s ramp) and was then held at 5 g for an additional 10 s (Schmidtko et al., 2008a). The paw withdrawal latency was taken to be the mean of three consecutive trials with at least 10 s in between. After baseline measurements, 20 al of complete Freund's adjuvant (CFA; containing 1 mg/ml heat-killed Mycobacterium tuberculosis in paraffin oil 85% and mannide monooleate 15%; Sigma-Aldrich) was injected into the plantar subcutaneous space of a hindpaw, and paw withdrawal latencies were determined at the indicated timepoints after CFA injection (Schmidtko et al., 2008b).
(§2) The animals were allowed to wake up in their home cage, where they remained for 50 min. Subsequently, mice were reanesthetized, killed to reduce the time of procedures on the living animal, and placed on a two-animal holder (Medres®). PET scans in list mode were performed using a Focus 220 micro PET scanner (CTI-Siemens®) with a resolution at center of field of view of 1.4 mm. Data acquisition started exactly one hour after [^18F]DCFPyL-injection and lasted […]. It was followed by a transmission scan using a ^57Co-point source for attenuation correction. Following Fourier rebinning, data were reconstructed using the iterative OSEM3D/MAP procedure (Qi et al., 1998) resulting in voxel sizes of 0.38×0.38×0.80 mm.
(§3) Four individual volumes of interest (VOIs, 24 mm^3 each) were drawn, two of which were placed over the left and right sciatic nerve plexus. The other two were positioned either over the sciatic nerve lesion in the thigh and the undamaged contra-lesional thigh (in case of SNI model), or over the hindpaws (in case of CFA model). […] The ratio of ipsi- and contralateral VOIs was calculated.
(§4) Each measurement was taken on a separate set of animals. […] To simplify the measurement methodology, animals were sacrificed instead of anaesthesized after 1 h and measured in a iPET. Images were analyzed for the section of maximal intensity at the site of injection, the respective areas quantified, and the ratio between ipsi- and contralateral side calculated.
(§5) In the inflammatory pain model, “Complete Freunds Adjuvant (CFA)” was injected in the left hind paw, which leads to long-lasting inflammation and pain. To induce neuropathic pain in the “Spared nerve injury (SNI) model”, two branches of the sciatic nerve were ligated, while the third branch (the sural nerve) was left intact. In both models, pain sensitivity was measured using the Dynamic Plantar Test at the day before the PET scan. A movable force actuator was positioned below the plantar surface of the animal. A thin (0.5 mm) filament exerted increasing force, until the animal twitched its paw. The time it takes for the animal to retract its paw inversely reflects touch sensitivity.
(§6) On the next day, the PSMA tracer [^18F]DCFPyL was intravenously injected. After an uptake period of 60 min, an emission scan was performed for 30 min.

[2] = biological target: T1, PSMA; test: micro-PET tracer uptake in sciatic nerve lesion (SNI) model of neuropathic pain; format: in vivo, mice
Procedure: as §1
Under isoflurane anesthesia, the tibial and common peroneal branches of the sciatic nerve were ligated and sectioned distally, while the sural nerve was left intact (Decosterd and Woolf, 2000); (Bourquin et al., 2006). Mechanical hypersensitivity at the lateral surface of the hindpaw (sural nerve skin area) was determined using a Dynamic Plantar Aesthesiometer as described above.
as §2, §3
as §4, with “For each” for “Each”, “measurement” for “measurement was taken on”, “animals was used.” for “animals.”, “pPET.” for “iPET.”, “side was” for “side”
as §5, §6

[3] = site of lesion, ipsi-/contralateral ratios, individual animals
[4] = 10 MBq into tail vein, PET after 1 h

T1 sequence (O35409 whole entry): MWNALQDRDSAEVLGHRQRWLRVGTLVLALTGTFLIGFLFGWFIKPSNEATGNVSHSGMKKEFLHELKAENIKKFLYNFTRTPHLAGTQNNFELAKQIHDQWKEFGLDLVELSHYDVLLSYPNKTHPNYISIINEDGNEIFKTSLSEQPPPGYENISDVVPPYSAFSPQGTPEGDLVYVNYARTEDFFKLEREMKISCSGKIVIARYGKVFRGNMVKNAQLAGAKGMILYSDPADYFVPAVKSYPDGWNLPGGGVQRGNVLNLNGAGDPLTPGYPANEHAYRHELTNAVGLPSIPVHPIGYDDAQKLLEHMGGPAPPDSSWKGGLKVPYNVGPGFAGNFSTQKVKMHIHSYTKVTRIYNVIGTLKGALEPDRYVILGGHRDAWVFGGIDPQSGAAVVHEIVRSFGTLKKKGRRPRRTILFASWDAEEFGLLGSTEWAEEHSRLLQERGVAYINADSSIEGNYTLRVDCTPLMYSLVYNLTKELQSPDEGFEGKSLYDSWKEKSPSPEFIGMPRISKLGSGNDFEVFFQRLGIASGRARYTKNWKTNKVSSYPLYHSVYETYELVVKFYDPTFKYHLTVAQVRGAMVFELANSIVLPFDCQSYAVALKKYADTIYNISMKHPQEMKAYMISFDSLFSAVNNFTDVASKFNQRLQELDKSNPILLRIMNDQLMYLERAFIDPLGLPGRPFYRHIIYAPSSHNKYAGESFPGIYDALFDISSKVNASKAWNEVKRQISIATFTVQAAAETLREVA

tracer uptake at the lesion site ([1]; 2, 7, and 14 days after CFA injection, FIG. 12B): significantly increased | tracer uptake at the contralateral side ([1]; 10 MBq into tail vein, PET after 1 h, contralateral paw): little to no | tracer uptake at the site of CFA injection ([1]; 10 MBq into tail vein, PET after 1 h, injected hindpaw): high | enrichment at the side of CFA injection, increase over the contra-lateral side ([1]; FIG. 3): ~2 fold | quantification of the uptake, increase over controls ([1]; average, ratio ipsi-/contralateral, FIG. 3): 2 fold | correlation of tracer uptake with pain sensitivity [1, 3]: significantly correlated | tracer uptake at the lesion site ([2]; 3, 7, and 14 days after surgery, FIG. 11B): significantly increased | tracer uptake at the contralateral side [2, 4]: little to no | tracer uptake in sham treated animals [2, 4]: little | quantification of the uptake, increase over sham-operated controls ([2]; average, FIG. 6): 2-3 fold | correlation of tracer uptake with pain sensitivity [2, 3]: significantly correlated
SMILES: O=C(O)CCC(NC(=O)NC(CCCCNC(=O)c1ccc([18F])nc1)C(=O)O)C(=O)O (stereo not shown) [[^18F]DCFPyL, 2-(3-{1-Carboxy-5-[(6-[18F]fluoro-pyridine-3-carbonyl)-amino]-pentyl}-ureido)-pen tanedioic acid]
tracer uptake at the site of injury ([2]; 10 MBq into tail vein, PET after 1 h, sciatic nerve lesion): high and strong enrichment | tracer enrichment along the nerve plexus ([2]; neuropathic pain animals): enrichment along the nerve toward the spinal cord
